Laboratory results reported in patent US20260263468A1 (Fundación Instituto de Investigación Sanitaria Fundación …, priority 2023, published 2026).

Assays:
C2C12 cells = assay: Cell proliferation assay (AlamarBlue); format: cell-based; conditions: 10^−9-10^−5 M, 24 and 48 hours
Protocol: C2C12 cells (American Type Culture Collection, ATCC, Manassas, VA, USA) were cultured in DMEM supplemented with 10% FBS and 1% penicillin-streptomycin. To induce myogenic differentiation, 70% confluence C2C12 cells were culture in DMEM containing 2% HS (horse serum). Cells were maintained in a humidified chamber at 37° C., in 95% air and 5% CO2. Media was replaced with fresh every 48h.
C2C12 cells were plated in 96-well plates (Corning, Cultek, Spain) (12.500 cells/well). Cell proliferation was measured using AlamarBlue assay according to the manufacturer's instructions, at 24 and 48 h of myogenic differentiation.

[1] = system: K/B×N serum transfer-induced arthritis; assay: K/B×N serum transfer-induced arthritis, acute model: joint thickness, clinical score, body weight; format: in vivo, C57BL/6J mice
Protocol: In their quest for a model of inflammatory arthritis which could display associated sarcopenia the inventors employed serum transfer from K/B×N progeny in 12-wk-old C57BL/6J mice. Arthritic K/B×N mice were generated by crossing KRN mice with NOD/Lt mice. Serum was collected and pulled. Age-matched, male recipient, 12-wk-old C57BL/6J mice were purchased from Charles River Laboratories (Barcelona, España). C57BL/6J mice were injected with pooled serum (100 μl, I.P.) from K/B×N mice on day 0 and 2.
(§1) Development of arthritis was assessed daily, and the severity of arthritis was assessed in each paw on a 4-point scale defined as follows: 0=normal appearance, 1=localized edema/erythema over one surface of the paw, 2=edema/erythema involving more than one surface of the paw, and 3-4=marked edema/erythema involving the whole paw. Scores of all 4 paws were added for a composite score. All motor activity tests were performed prior to serum inoculation and at the highest point of inflammation. Mice were euthanized on day 14. Gastronemius and quadriceps were collected for protein and RNA extraction. Tibialis and soleus were included for freeze histology following the indications of H. Meng (1). Bones were prepared for micro-computed tomography (microCT) and histology. White adipose tissue (WAT) and brown adipose tissue (BAT) were collected for histology and protein extraction. Blood was drawn and serum was isolated for measurement of inflammatory cytokines and C-reactive protein (CPR).
(§2) Animals were sacrificed 30 days after serum transfer.
as §1, with “Mice were weighted weekly. Development” for “Development”, “16 for acute inflammation model or 30 days for Inflammation resolved model. A representative photo of body structure and muscle of pawn were taken on this day.” for “14.”, “was” for “and quadriceps were”, “(see references in ref. 44).” for “(1).”, “histology.” for “histology. White adipose tissue (WAT) and brown adipose tissue (BAT) were collected for histology and protein extraction.”

[2] = system: K/B×N serum transfer-induced arthritis; assay: Motor activity tests in K/B×N serum transfer arthritis; format: in vivo, C57BL/6 mice
Protocol: Physical activity tests were performed to assess the motor development of the mice during the arthritic process as follows:
(§3) Ambulation in 12-week-old male C57BL/6 mice was recorded following the protocol described by Gibbs and Crosbie-Watson (2). Mice were placed in individual recording chambers and were allowed to freely move for 6 min. Distance traveled by each animal was determined using object tracking in Kinovea open-source video analysis software (V 0.9.5).
(§4) The coordinated motor function of the four limbs was evaluated with the rotarod test (Rotarod, Harvard Apparatus, USA) with male C57BL/6 mice at the age of 12-week-old. Burgos et al. protocol was followed with modifications (76). Mice were first familiarized with the rotarod by letting them stay for 120s on the rod rotating at 4 and 6 rotations per minute (rpm). Motor activity was assessed by training the mice with an accelerated rotarod protocol of three trials, during which the rod accelerated from 4 rpm to 40 rpm within 5 min.
as §3, with “(see references in ref. 44).” for “(2).”
The Grip Strength Meter (Ugo Basile, #47200) was utilized to assess the grip strength peak of the forelimbs. The mouse held onto a bar, and the highest force exerted during the pull was measured in grams using a digital force transducer. In the test, the mouse gripped a bar attached to the force gauge. Next, an investigator pulled the mouse's tail backward. The gauge recorded tension at the moment the mouse released its forepaws from the bar.
as §4, with “(see references in ref. 44).” for “(76).”

[3] = system: K/B×N serum transfer-induced arthritis; assay: Resolved inflammation model (30 days): tissues weight, inflammation, body weight; format: in vivo, C57BL/6J mice; conditions: for BAT, Absolute weight / Bodyweight, Absolute weight / EDL, Absolute weight / Gastronemius, Absolute weight / Tibialis, Absolute weight / WAT, Absolute weight: resolved model
Protocol: as §2
as §1, with “Mice were weighted weekly. Development” for “Development”, “16 for acute inflammation model or 30 days for Inflammation resolved model. A representative photo of body structure and muscle of pawn were taken on this day.” for “14.”, “was” for “and quadriceps were”, “(see references in ref. 44).” for “(1).”, “histology.” for “histology. White adipose tissue (WAT) and brown adipose tissue (BAT) were collected for histology and protein extraction.”
Body weight and muscle loss continue happening until day 30 when inflammation is resolved (FIG. 15), and dipy treatment continues reverting inflammation effects (FIG. 15A).

[4] = Body composition by DXA scan; format: in vivo, C57BL/6J mice; conditions: healthy mice, dipy treatment alone, 2 weeks
Protocol: Previously to arthritis induction and sacrifice day, all mice underwent DXA scan. For DXA analysis, a Lunar PIXImus densitometer (software version 2.10) was calibrated using a hydroxyapatite phantom provided by the manufacturer (Lunar Corp, Madison, WI). Subsequently, mice were anesthetized and whole-body scans were conducted. Data analysis consisted of whole-body lean mass, fat mass, bone mineral density and bone mineral content. […] Previously to arthritis induction and sacrifice day, all mice underwent DXA scan. For DXA analysis, a Lunar PIXImus densitometer (software version 2.10) was calibrated using a hydroxyapatite phantom provided by the manufacturer (Lunar Corp, Madison, WI). Subsequently, mice were anesthetized and whole-body scans were conducted. Data analysis consisted of whole-body lean mass, fat mass, bone mineral density and bone mineral content.

[5] = mice, dipyridamole 25 mg/Kg/day with tenofovir; cited from earlier work
[6] = RA mice, dipy started 7 days after serum transfer

## OCCN(CCO)c1nc(N2CCCCC2)c2nc(N(CCO)CCO)nc(N3CCCCC3)c2n1 [dipyridamole, 2,6-bis(Diethanolamino)-4,8-dipiperidinopyrimido[5,4-d]pyrimidine]
C2C12 cells
  Proliferation: No significant changes
[1]; arthritic mice, 2 weeks of treatment, arthritic 14.2±4.1%
  Weight loss: 6.2±3.4%
[1]; arthritic mice, daily dipyridamole, 2 wk, arthritic 1.72±0.09
  Paw (joint) thickness: 0.5±0.01 mm
[1]; arthritic mice, daily dipyridamole, 2 wk, arthritic 14±1
  Clinical score (inflammation): 5±3
[1]; healthy mice, dipy alone, two weeks
  Hind paw musculature (macroscopic): no significant changes
[1]; healthy mice, dipyridamole 25 mg/kg/day alone, 2 weeks
  Percentage of weight: did not change
[2]; arthritic mice + dipyridamole, 2 weeks, arthritic 830±37, sham 1393±187
  Ambulatory activity: distance travelled: 1203±53 cm
[2]; arthritic mice + dipyridamole, arthritic 3.6±3.3, sham 12±3
  Two limb hanging test average score: 9.8±2
[2]; arthritic mice + dipyridamole, arthritic 43.3±5.4, sham 75.9±3.3
  Rotarod latency to fall: 73.3±10.9 seg
[2]; healthy mice, dipy alone vs sham
  Motor tests (ambulatory activity, grip strength, two limb hanging, rotarod): behave similar
[3]; [6]
  Body weight: body weight gain starting one week after first dipy dose
  Joint inflammation: complete reversion of inflammation
[3]; Dipy alone
  BAT, Absolute weight: 0.15 ± 0.01 g
  Bodyweight, Absolute weight: 27 ± 0.5 g
  EDL, Absolute weight: 0.03 ± 0.01 g
  Gastronemius, Absolute weight: 0.39 ± 0.03 g
  Tibialis, Absolute weight: 0.16 ± 0.02 g
  WAT, Absolute weight: 0.14 ± 0.06 g
[3]; RA + Dipy D 0
  BAT, Absolute weight: 0.17 ± 0.01 g
  EDL, Absolute weight: 0.03 ± 0.01 g
  Gastronemius, Absolute weight: 0.37 ± 0.02 g
  Tibialis, Absolute weight: 0.11 ± 0.01 g
  WAT, Absolute weight: 0.15 ± 0.08 g
[3]; RA + Dipy D 0 (preventive)
  Bodyweight, Absolute weight: 26.4 ± 1.31 g
[3]; RA + Dipy D 7
  BAT, Absolute weight: 0.15 ± 0.01 g
  Gastronemius, Absolute weight: 0.33 ± 0.02 g
  Tibialis, Absolute weight: 0.05 ± 0.01 g
  WAT, Absolute weight: 0.18 ± 0.12 g
[3]; RA + Dipy D 7 (therapeutic)
  Bodyweight, Absolute weight: 27.26 ± 1.20 g
[4]
  Body composition (DXA): did not produced alterations in body composition
[5]
  Body weight (tenofovir-induced loss): recovered
